# Assay results from publication PMC11162475, “Rule-based omics mining reveals antimicrobial macrocyclic peptides against drug-resistant clinical isolates” (Nature Communications, 2024).
# Columns and labels:
# [1] = system: Acinetobacter baumannii 20-1; test: microbe, parasite or virus in culture; assay type: cell-based; conditions: 201; Acinetobacter baumannii 20-1; determined by Sichuan Primed Shines Bio-tech, similar protocol; read-out: MIC
# Experimental: (§1) For MIC determination, Staphylococcus aureus ATCC25923, Bacillus subtilis 168, Micrococcus luteus DSM1790, Enterococcus faecalis OG1RF, Enterococcus faecium MCC2763, Escherichia coli DH5α and Pseudomonas aeruginosa PAO1 were used as indicator strains. Nisin and vancomycin were used as positive controls. A dilution series of massatide A, massatide B, vancomycin (16, 8, 4, 2, 1, 0.5, 0.25, 0.125, 0.0625, 0.0313 μg/mL) and sistertide A1, kebanetide A1, kebanetide A2, nisin (64, 32, 16, 8, 4, 2, 1, 0.5, 0.25, 0.125 μg/mL) were prepared in 96-well plate from 1–10th column. The indicator strains were added to the compound-containing well. The indicator strain culture with no antibiotics was prepared in the 11th column. The 12th column was filled with 200 μL empty MHB medium. The 96-well plate was incubated at 37 °C for 20 h (30 °C for M. luteus and B. subtilis). The OD600 was detected on MULTISKAN Sky (Thermo Scientific) and MIC values were determined. The MIC values of clinical isolates were determined by Sichuan Primed Shines Bio-tech Co., Ltd. (China) following similar protocol. Levofloxacin was used as a positive control.
# [2] = system: Acinetobacter baumannii 20-2; test: microbe, parasite or virus in culture; assay type: cell-based; conditions: 202; Acinetobacter baumannii 20-2; determined by Sichuan Primed Shines Bio-tech, similar protocol; read-out: MIC
# Experimental: as §1
# [3] = system: Enterococcus faecalis 19-1; test: microbe, parasite or virus in culture; assay type: cell-based; conditions: 191; Enterococcus faecalis 19-1; determined by Sichuan Primed Shines Bio-tech, similar protocol; read-out: MIC
# Experimental: as §1
# [4] = system: Klebsiella pneumoniae 15-1; test: microbe, parasite or virus in culture; assay type: cell-based; conditions: 151; Klebsiella pneumoniae 15-1; determined by Sichuan Primed Shines Bio-tech, similar protocol; read-out: MIC
# Experimental: as §1
# [5] = system: Klebsiella pneumoniae ATCC700603; test: microbe, parasite or virus in culture; assay type: cell-based; conditions: Klebsiella pneumoniae ATCC700603; determined by Sichuan Primed Shines Bio-tech, similar protocol; read-out: MIC
# Experimental: as §1
# LRSA 20-1 = test: microbe, parasite or virus in culture; assay type: cell-based, Staphylococcus aureus; conditions: Staphylococcus aureus; LRSA 20-1 (linezolid-resistant S. aureus); determined by Sichuan Primed Shines Bio-tech, similar protocol; read-out: MIC
# Experimental: as §1
# MRSA 15-1 = test: microbe, parasite or virus in culture; assay type: cell-based, Staphylococcus aureus; conditions: Staphylococcus aureus; MRSA 15-1 (methicillin-resistant S. aureus); determined by Sichuan Primed Shines Bio-tech, similar protocol; read-out: MIC
# Experimental: as §1
# MRSA ATCC33591 = test: microbe, parasite or virus in culture; assay type: cell-based, Staphylococcus aureus; conditions: Staphylococcus aureus; MRSA ATCC33591; determined by Sichuan Primed Shines Bio-tech, similar protocol; read-out: MIC
# Experimental: as §1
# MRSA ATCC43300 = test: microbe, parasite or virus in culture; assay type: cell-based, Staphylococcus aureus; conditions: Staphylococcus aureus; MRSA ATCC43300; determined by Sichuan Primed Shines Bio-tech, similar protocol; read-out: MIC
# Experimental: as §1
# VMSA ATCC700699 = test: microbe, parasite or virus in culture; assay type: cell-based, Staphylococcus aureus; conditions: Staphylococcus aureus; VMSA ATCC700699 (vancomycin-intermediate S. aureus); determined by Sichuan Primed Shines Bio-tech, similar protocol; read-out: MIC
# Experimental: as §1
# VMSA ATCC700788 = test: microbe, parasite or virus in culture; assay type: cell-based, Staphylococcus aureus; conditions: Staphylococcus aureus; VMSA ATCC700788 (vancomycin-intermediate S. aureus); determined by Sichuan Primed Shines Bio-tech, similar protocol; read-out: MIC
# Experimental: as §1
# LREfa 20-1 = test: microbe, parasite or virus in culture; assay type: cell-based, Enterococcus faecalis; conditions: Enterococcus faecalis, 201; LREfa 20-1 (linezolid-resistant E. faecalis); determined by Sichuan Primed Shines Bio-tech, similar protocol; read-out: MIC
# Experimental: as §1
# VREfa ATCC51575 = test: microbe, parasite or virus in culture; assay type: cell-based, Enterococcus faecalis; conditions: Enterococcus faecalis; VREfa ATCC51575 (vancomycin-resistant E. faecalis); determined by Sichuan Primed Shines Bio-tech, similar protocol; read-out: MIC
# Experimental: as §1
# Bacillus subtilis 168 = test: microbe, parasite or virus in culture; assay type: cell-based; conditions: 168, 20 h
# Experimental: as §1
# [6] = system: Enterococcus faecalis OG1RF; test: microbe, parasite or virus in culture; assay type: cell-based; conditions: OG1RF, 20 h
# Experimental: as §1
# [7] = system: Enterococcus faecium MCC2763; test: microbe, parasite or virus in culture; assay type: cell-based; conditions: MCC2763, 20 h
# Experimental: as §1
# [8] = system: Micrococcus luteus DSM1790; test: microbe, parasite or virus in culture; assay type: cell-based; conditions: DSM1790, 20 h
# Experimental: as §1
# [9] = system: Staphylococcus aureus ATCC25923; test: microbe, parasite or virus in culture; assay type: cell-based; conditions: ATCC25923, 20 h
# Experimental: as §1
# [10] = system: Micrococcus luteus DSM1790; test: Kirby-Bauer assay, zone of inhibition (agar well); assay type: cell-based; conditions: M. luteus DSM1790; 10 μL DMSO stock (3.2 or 1.6 mg/mL) in well of soft LB agar, 30 °C, 20 h
# Experimental: (§2) The stock solution of massatide A (1) and B (1a) 3.2 mg/mL were prepared in DMSO. 40 μL overnight culture of Micrococcus luteus DSM1790 was added to 20 mL soft Luria-Bertani agar (1% agar), and then poured into a plate. 10 μL tip was used to make two wells on the plate. 10 μL massatide A (1) or B (1a) solution was added in one of the wells, while in the other well, 10 μL DMSO was added as a negative control. The plates were incubated at 30 °C for 20 h to observe the zone of inhibition. Staphylococcus aureus ATCC25923 was also used to observe the inhibition zone using a similar method. The only difference is incubating at 37 °C. Stock solutions of sistertide A1, kebanetide A1 and A2 were 3.2 mg/mL, 1.6 mg/mL and 1.6 mg/mL, respectively. The method to observe the activity of these compounds individually was the same as that of massatide.
# [11] = system: Staphylococcus aureus ATCC25923; test: Kirby-Bauer assay, zone of inhibition (agar well); assay type: cell-based; conditions: S. aureus ATCC25923; 10 μL of 3.2 mg/mL DMSO stock in well of soft LB agar, 37 °C, 20 h
# Experimental: as §2
# [12] = Mammalian cytotoxicity, CCK-8 assay; assay type: cell-based; conditions: human
# Experimental: (§3) Bioactivity assay of the crude extract
# (§4) Protease stability of massatide A
# (§5) Thermal stability of massatide A […]
# (§6) and 1% penicillin -streptomycin. […]
# (§7) and CO 2-controllable incubator with 5% CO 2. All the cell experiments were performed […]
# (§8) Cell viability was determined by the CCK -8 assay. HeLa and Hek -293T cells were […]
# (§9) µg/ml. At the end of the fixed incubation period (24 h), cells were washed with PBS to remove excess compound. We added 100 µl fresh medium and 10 µl CCK-8 reagent.
# (§10) After 2 h incubation at 37°C, absorbance at 450 nm was recorded using a microplate reader. All experiments were performed in triplicate (n=3 independent experiments).
# (§11) Growth kinetics of S. aureus
# (§12) Massatide A or B was prepared in a 96-well plate at the concentration of 8×MIC, 4×MIC, 2×MIC, 1×MIC and 0.5×MIC , respectively. The MHB medium with no compound was used as a control. Then, the overnight culture of S. aureus ATCC 25923 cells was added to the medium at 1:1,000. The plate was incubated with shaking in SpectraMax iD3 (MOLECULAR DEVICES) at 30 ℃. OD600 was measured every 30 min for 36 hours. To analyze the lysis, 1mL of S. aureus ATCC 25923 culture (OD600 1.0) was treated with massatide A or vancomycin (10×MIC) for 24h. An untreated sample was used as a negative control.
# (§13) Time-dependent killing assay
# (§14) An overnight culture of S. aureus ATCC 25923 cells was diluted at 1:10,000 in MHB medium and incubated at 37 ℃, 200 rpm for 2 hours to reach the early exponential.
# (§15) Then, massatide A or vancomycin was added to the culture at the concentration of 10×MIC. Bacteria were still cultivated at 37 ℃, 200 rpm. Culture with no antibiotics was used as a negative control. 10 μL aliquots were removed at intervals, centrifuged, and resuspended in 1 ml PBS. Serially diluted (10-fold) suspensions were plated on MHB agar and incubated at 37 ℃ overnight for counting of colony-forming units.
# (§16) Experiments were performed in triplicate.
# (§17) Sequential culturing of S. aureus ATCC 25923 was performed in the presence of a subinhibitory concentration of massatide A to observe whether the resistance developed. […]
# HeLa cells = test: Mammalian cytotoxicity, CCK-8 assay; assay type: cell-based
# Experimental: as §3, §4, §5, §6, §7, §8, §9, §10, §11, §12, §13, §14, §15, §16, §17
# Escherichia coli DH5α = assay type: cell-based; conditions: DH5α, 20 h
# Experimental: as §1
# [13] = system: Pseudomonas aeruginosa PAO1; assay type: cell-based; conditions: PAO1, 20 h
# Experimental: as §1
compound,measurement,setting,value
"C[C@H]1COc2c(N3CCN(C)CC3)c(F)cc3c(=O)c(C(=O)O)cn1c23 [Levofloxacin, reference compound]",MIC,[1],8 µg/mL
same,MIC,[2],0.06 µg/mL
same,MIC,[3],1 µg/mL
same,MIC,[4],0.25 µg/mL
same,MIC,[5],0.5 µg/mL
same,MIC,LRSA 20-1,32 µg/mL
same,MIC,MRSA 15-1,16 µg/mL
same,MIC,MRSA ATCC33591,0.25 µg/mL
same,MIC,MRSA ATCC43300,0.25 µg/mL
same,MIC,VMSA ATCC700699,64 µg/mL
same,MIC,VMSA ATCC700788,32 µg/mL
same,MIC,LREfa 20-1,32 µg/mL
same,MIC,VREfa ATCC51575,0.5 µg/mL
"C/C=C1\NC(=O)C(N(C)C)C(C)SC[C@@H](C(=O)N/C(=C\C)C(=O)N[C@H](C(=O)N[C@@H](C)C(=O)N[C@H](C)C(=O)N[C@@H](Cc2ccccc2)C(=O)N[C@@H](C)C(=O)NC2C(=O)NCC(=O)N[C@@H](Cc3ccc(O)cc3)C(=O)N[C@@H](Cc3ccccc3)C(=O)N[C@H](C)C(=O)N/C=C\SC2C)C(C)C)NC(=O)[C@@H]2CCCN2C(=O)[C@H](C(C)C)NC1=O (stereo partly drawn) [Massatide B (1a), massatide B]",MIC,Bacillus subtilis 168,4 µg/mL
same,MIC,[6],4 µg/mL
same,MIC,[7],4 µg/mL
same,MIC,[8],0.25 µg/mL
same,MIC,[9],1 µg/mL
same,inhibitory activity (zone of inhibition),[10],strong inhibitory activity
same,inhibitory activity (zone of inhibition),[11],strong inhibitory activity
same,IC50 at 24 h,[12],> 200 µg/mL
same,cytotoxicity against Hela cells,HeLa cells,did not exhibit any significant cytotoxicity
same,MIC,Escherichia coli DH5α,>64 µg/mL
same,MIC,[13],>64 µg/mL
